Columns and labels:
Format in all cases: in vivo
[1] = system: Spodoptera littoralis; assay: Example B9: Spodoptera littoralis (Egyptian Cotton Leaf Worm), cotton leaf disc spray; settings: foliar, 72 h, application rate of 200 ppm, sprayed cotton leaf discs, L1 larvae, 3 days after infestation, read-out: control in at least one of the three categories (mortality, anti-feedant or growth inhibition)
[2] = system: Chilo suppressalis; assay: Example B4: Chilo suppressalis (Striped Rice Stemborer); settings: 144 h, application rate of 200 ppm, artificial diet, L2 larvae, 6 days after infestation, read-out: control in at least one of the three categories (mortality, anti-feedant or growth inhibition)
Protocol: Example B4: Chilo suppressalis (Striped Rice Stemborer)
24-well microtiter plates with artificial diet were treated with aqueous test solutions prepared from 10′000 ppm DMSO stock solutions by pipetting. After drying, the plates were infested with L2 larvae (6-8 per well). The samples were assessed for mortality, anti-feeding effect, and growth inhibition in comparison to untreated samples 6 days after infestation. Control of Chilo suppressalis by a test sample is given when at least one of the categories mortality, anti-feedant effect, and growth inhibition is higher than the untreated sample.

[3] = system: Plutella xylostella; assay: Example B5: Plutella xylostella (Diamond Back Moth); settings: 192 h, application rate of 200 ppm, 24-well artificial diet, eggs, 8 days after infestation, read-out: control in at least one of the two categories (mortality or growth inhibition)
Protocol: Example B5: Plutella xylostella (Diamond Back Moth)
24-well microtiter plates with artificial diet were treated with aqueous test solutions prepared from 10′000 ppm DMSO stock solutions by pipetting. After drying, Plutella eggs were pipetted through a plastic stencil onto a gel blotting paper and the plate was closed with it. The samples were assessed for mortality and growth inhibition in comparison to untreated samples 8 days after infestation.

[4] = system: Plutella xylostella; assay: Example B12: Plutella xylostella (Diamondback Moth), 96-well artificial diet; settings: 216 h, application rate of 500 ppm, eggs, 9 days after infestation
Protocol: Example B12: Plutella xylostella (Diamondback Moth)
96-well microtiter plates containing artificial diet were treated with aqueous test solutions, prepared from 10′000 ppm DMSO stock solutions, by a liquid handling robot. After drying, eggs (˜30 per well) were infested onto a netted lid which was suspended above the diet. The eggs hatch and L1 larvae move down to the diet. The samples were assessed for mortality 9 days after infestation.

[5] = system: Diabrotica balteata; assay: Example B1: Diabrotica balteata (Corn Root Worm); settings: 96 h, application rate of 200 ppm, sprayed maize sprouts, L2 larvae, 4 days after infestation, read-out: control in at least one of the two categories (mortality or growth inhibition)
Protocol: Example B1: Diabrotica balteata (Corn Root Worm)
Maize sprouts placed onto an agar layer in 24-well microtiter plates were treated with aqueous test solutions prepared from 10′000 ppm DMSO stock solutions by spraying. After drying, the plates were infested with L2 larvae (6 to 10 per well). The samples were assessed for mortality and growth inhibition in comparison to untreated samples 4 days after infestation.

CC(NC(=O)c1cc(C(F)(F)F)cc(S(=O)(=O)C(F)(F)F)c1)c1nccnc1-c1ncc(C2CC2)cn1 (stereo not drawn) [P11, N-[1-[3-(5-cyclopropylpyrimidin-2-yl)pyrazin-2-yl]ethyl]-3-(trifluoromethyl)-5-(trifluoromethylsulfonyl) benzamide]
≥ 80%: percent control (mortality, anti-feedant effect or growth inhibition) at 200 ppm [1] | percent control (mortality, anti-feedant effect or growth inhibition) at 200 ppm [2] | percent control (mortality or growth inhibition) at 200 ppm [3] | mortality at 500 ppm [4]

CC(NC(=O)c1cc(C(F)(F)F)cc(S(=O)(=O)C(F)(F)F)c1)c1nccnc1-c1ccccn1 (stereo not drawn) [P13, N-[1-[3-(2-pyridyl)pyrazin-2-yl]ethyl]-3-(trifluoromethyl)-5-(trifluoromethylsulfonyl) benzamide]
≥ 80%: percent control (mortality, anti-feedant effect or growth inhibition) at 200 ppm [1] | percent control (mortality, anti-feedant effect or growth inhibition) at 200 ppm [2] | percent control (mortality or growth inhibition) at 200 ppm [5] | percent control (mortality or growth inhibition) at 200 ppm [3] | mortality at 500 ppm [4]

CC(NC(=O)c1cc(C(F)(F)F)nc(C2(C#N)CC2)c1)c1nccnc1-c1ccc(Cl)cn1 (stereo not drawn) [P16, N-[1-[3-(5-chloro-2-pyridyl)pyrazin-2-yl]ethyl]-2-(1-cyanocyclopropyl)-6-(trifluoromethyl)pyridine-4-carboxamide]
≥ 80%: percent control (mortality, anti-feedant effect or growth inhibition) at 200 ppm [1] | percent control (mortality, anti-feedant effect or growth inhibition) at 200 ppm [2] | percent control (mortality or growth inhibition) at 200 ppm [5] | percent control (mortality or growth inhibition) at 200 ppm [3] | mortality at 500 ppm [4]

CC(NC(=O)c1cc(C(F)(F)F)cc(C2(C#N)CC2)c1)c1nccnc1-c1ccc(Cl)cn1 (stereo not drawn) [P17, N-[1-[3-(5-chloro-2-pyridyl)pyrazin-2-yl]ethyl]-3-(1-cyanocyclopropyl)-5-(trifluoromethyl)benzamide]
≥ 80%: percent control (mortality, anti-feedant effect or growth inhibition) at 200 ppm [1] | percent control (mortality, anti-feedant effect or growth inhibition) at 200 ppm [2] | percent control (mortality or growth inhibition) at 200 ppm [5] | percent control (mortality or growth inhibition) at 200 ppm [3] | mortality at 500 ppm [4]

CC(NC(=O)c1cc(C2CC2)cc(C(F)(F)F)c1)c1nccnc1-c1ccc(Cl)cn1 (stereo not drawn) [P18, N-[1-[3-(5-chloro-2-pyridyl)pyrazin-2-yl]ethyl]-3-cyclopropyl-5-(trifluoromethyl)benzamide]
≥ 80%: percent control (mortality, anti-feedant effect or growth inhibition) at 200 ppm [2] | percent control (mortality or growth inhibition) at 200 ppm [3] | mortality at 500 ppm [4]

CC(NC(=O)c1cc(C(F)(F)F)cc(C(F)(F)C2CC2)c1)c1nccnc1-c1ccccn1 (stereo not drawn) [P20, 3-[cyclopropyl (difluoro)methyl]-N-[1-[3-(2-pyridyl)pyrazin-2-yl]ethyl]-5-(trifluoromethyl) benzamide]
≥ 80%: percent control (mortality, anti-feedant effect or growth inhibition) at 200 ppm [1] | percent control (mortality, anti-feedant effect or growth inhibition) at 200 ppm [2] | percent control (mortality or growth inhibition) at 200 ppm [5] | percent control (mortality or growth inhibition) at 200 ppm [3] | mortality at 500 ppm [4]

CC(NC(=O)c1cc(C(F)(F)F)cc(C2(C#N)CC2)c1)c1nccnc1-c1ccc(Br)cn1 (stereo not drawn) [P24, N-[1-[3-(5-bromo-2-pyridyl)pyrazin-2-yl]ethyl]-3-(1-cyanocyclopropyl)-5-(trifluoromethyl)benzamide]
≥ 80%: percent control (mortality, anti-feedant effect or growth inhibition) at 200 ppm [1] | percent control (mortality, anti-feedant effect or growth inhibition) at 200 ppm [2] | percent control (mortality or growth inhibition) at 200 ppm [5] | percent control (mortality or growth inhibition) at 200 ppm [3] | mortality at 500 ppm [4]

CC(NC(=O)c1cc(C(F)(F)F)nc(C2(C#N)CC2)c1)c1nccnc1-c1ccc(F)cn1 (stereo not drawn) [P27, 2-(1-cyanocyclopropyl)-N-[1-[3-(5-fluoro-2-pyridyl)pyrazin-2-yl]ethyl]-6-(trifluoromethyl)pyridine-4-carboxamide]
≥ 80%: percent control (mortality, anti-feedant effect or growth inhibition) at 200 ppm [2] | percent control (mortality or growth inhibition) at 200 ppm [3] | mortality at 500 ppm [4]

CC(NC(=O)c1cc(C(F)(F)F)nc(C2(C#N)CC2)c1)c1nccnc1-c1ccc(Br)cn1 (stereo not drawn) [P28, N-[1-[3-(5-bromo-2-pyridyl)pyrazin-2-yl]ethyl]-2-(1-cyanocyclopropyl)-6-(trifluoromethyl)pyridine-4-carboxamide]
≥ 80%: percent control (mortality, anti-feedant effect or growth inhibition) at 200 ppm [1] | percent control (mortality, anti-feedant effect or growth inhibition) at 200 ppm [2] | percent control (mortality or growth inhibition) at 200 ppm [5] | percent control (mortality or growth inhibition) at 200 ppm [3] | mortality at 500 ppm [4]

CC(NC(=O)c1cc(C2CC2)cc(C(F)(F)F)c1)c1nccnc1-c1ccccn1 (stereo not drawn) [P33, 3-cyclopropyl-N-[1-[3-(2-pyridyl)pyrazin-2-yl]ethyl]-5-(trifluoromethyl)benzamide]
≥ 80%: percent control (mortality, anti-feedant effect or growth inhibition) at 200 ppm [2] | percent control (mortality or growth inhibition) at 200 ppm [5] | percent control (mortality or growth inhibition) at 200 ppm [3] | mortality at 500 ppm [4]

CC(NC(=O)c1cc(C2CC2)cc(C(F)(F)F)c1)c1nccnc1-c1ncc(OC(F)F)cn1 (stereo not drawn) [P34, 3-cyclopropyl-N-[1-[3-[5-(difluoromethoxy)pyrimidin-2-yl]pyrazin-2-yl]ethyl]-5-(trifluoromethyl)benzamide]
≥ 80%: percent control (mortality, anti-feedant effect or growth inhibition) at 200 ppm [1] | percent control (mortality, anti-feedant effect or growth inhibition) at 200 ppm [2] | percent control (mortality or growth inhibition) at 200 ppm [5] | percent control (mortality or growth inhibition) at 200 ppm [3] | mortality at 500 ppm [4]

CC(NC(=O)c1cc(C2CC2)cc(C(F)(F)F)c1)c1nccnc1-c1ncc(C2CC2)cn1 (stereo not drawn) [P35, 3-cyclopropyl-N-[1-[3-(5-cyclopropylpyrimidin-2-yl)pyrazin-2-yl]ethyl]-5-(trifluoromethyl)benzamide]
≥ 80%: percent control (mortality, anti-feedant effect or growth inhibition) at 200 ppm [1] | percent control (mortality, anti-feedant effect or growth inhibition) at 200 ppm [2] | percent control (mortality or growth inhibition) at 200 ppm [5] | percent control (mortality or growth inhibition) at 200 ppm [3] | mortality at 500 ppm [4]

CC(NC(=O)c1cc(C(F)(F)F)nc(C2(C#N)CC2)c1)c1nccnc1-c1ncc(C2CC2)cn1 (stereo not drawn) [P36, 2-(1-cyanocyclopropyl)-N-[1-[3-(5-cyclopropylpyrimidin-2-yl)pyrazin-2-yl]ethyl]-6-(trifluoromethyl)pyridine-4-carboxamide]
≥ 80%: percent control (mortality, anti-feedant effect or growth inhibition) at 200 ppm [1] | percent control (mortality, anti-feedant effect or growth inhibition) at 200 ppm [2] | percent control (mortality or growth inhibition) at 200 ppm [5] | percent control (mortality or growth inhibition) at 200 ppm [3] | mortality at 500 ppm [4]

CC(NC(=O)c1cc(C2CC2)cc(C(F)(F)F)c1)c1nccnc1-c1ccc(F)cn1 (stereo not drawn) [P40, 3-cyclopropyl-N-[1-[3-(5-fluoro-2-pyridyl)pyrazin-2-yl]ethyl]-5-(trifluoromethyl)benzamide]
≥ 80%: percent control (mortality, anti-feedant effect or growth inhibition) at 200 ppm [1] | percent control (mortality, anti-feedant effect or growth inhibition) at 200 ppm [2] | percent control (mortality or growth inhibition) at 200 ppm [5] | percent control (mortality or growth inhibition) at 200 ppm [3] | mortality at 500 ppm [4]

C[C@H](NC(=O)c1cc(C(F)(F)F)cc(C(F)(F)C2CC2)c1)c1nccnc1-c1ccc(Br)cn1 [P42, N-[(1S)-1-[3-(5-bromo-2-pyridyl)pyrazin-2-yl]ethyl]-3-[cyclopropyl(difluoro)methyl]-5-(trifluoromethyl)benzamide]
≥ 80%: percent control (mortality, anti-feedant effect or growth inhibition) at 200 ppm [1] | percent control (mortality, anti-feedant effect or growth inhibition) at 200 ppm [2] | percent control (mortality or growth inhibition) at 200 ppm [5] | percent control (mortality or growth inhibition) at 200 ppm [3] | mortality at 500 ppm [4]
